Laboratory results reported in patent US20230136717A1, “EPLIN AS A BIOMARKER FOR CANCER” (Turun yliopisto, priority 2020, published 2023).

How the values were obtained:
[1] = system: HNSCC cell lines; test: Sensitivity of HNSCC cell lines to EGFR-TKi after silencing EPLIN; type: cell-based; conditions: siRNA silencing of EPLIN; FIG. 6C
[2] = system: HNSCC patient samples; test: Cancer drug sensitivity testing on nonselected HNSCC patient samples (Misvik Oy); type: cell-based; conditions: for drug sensitivity: EPLIN positive HNSCC, more than 160 cancer drugs tested, all results not shown
Excerpt: Our proof-of-concept study featured testing the sensitivity of more than 160 cancer drugs on nonselected HNSCC patient samples using an internationally validated method (Misvik Oy, Turku, Finland).

Structure (SMILES): C#Cc1cccc(Nc2ncnc3cc(OCCOC)c(OCCOC)cc23)c1 [Erlotinib]
- effect relative to the other tested EGFR-TKis [1]: best result
- sensitivity of HNSCC cells to the drug on silencing EPLIN expression [1]: decreases sensitivity
- drug sensitivity [2]: highest sensitivity
- function as precision therapy ([2]; several EPLIN positive HNSCC patients, FIG. 7A): proven to function as precision therapy

Structure (SMILES): CCOc1cc2ncc(C#N)c(Nc3ccc(OCc4ccccn4)c(Cl)c3)c2cc1NC(=O)/C=C/CN(C)C [Neratinib]
- sensitivity of HNSCC cells to the drug on silencing EPLIN expression [1]: decreases sensitivity

Structure (SMILES): C=CC(=O)Nc1cc(Nc2nccc(-c3cn(C)c4ccccc34)n2)c(OC)cc1N(C)CCN(C)C [AZD9291]
- sensitivity of HNSCC cells to the drug on silencing EPLIN expression [1]: decreases sensitivity

Structure (SMILES): CNC(=O)CN1CCC(Oc2cc3c(Nc4cccc(Cl)c4F)ncnc3cc2OC)CC1 [AZD8931]
- sensitivity of HNSCC cells to the drug on silencing EPLIN expression [1]: decreases sensitivity

Structure (SMILES): C=CC(=O)Nc1cc2c(Nc3ccc(F)c(Cl)c3)ncnc2cc1OCCCN1CCOCC1 [Canertinib]
- drug sensitivity [2]: highest sensitivity

Structure (SMILES): COc1cc2ncnc(Nc3ccc(F)c(Cl)c3)c2cc1OCCCN1CCOCC1 [Gefitinib]
- drug sensitivity [2]: highest sensitivity
